Assay results taken from patent US20260055066A1, “CRYSTALLINE FORM OF PYRIMIDINE-4-CARBOXAMIDE COMPOUND AND ORAL PHARMACEUTICAL FORMULATION CONTAINING SAME” (J2H BIOTECH INC., priority 2022, published 2026).
Where two headings read alike, the source gives them in different places.

Key:
[1] = Water solubility / BCS classification of the compound of chemical formula 1; assay type: physicochemical
[2] = Comparative pharmacokinetic test of the formulation in beagle dog, Experimental Example 8; assay type: in vivo; settings: for AUC(0-t) / Cmax / Tmax / half-life / Vd/F / CL/F: beagle, dog, plasma; for Vd/F: read-out: Vz(terminal)/F; for CL/F: CL(inf)/F
Experimental: By applying the conditions of Preparation Example 10, tablets containing 25, 50, and 100 mg of the crystalline solid of chemical formula 1 as a pharmaceutical raw material were manufactured. An experiment was conducted to analyze the pharmacokinetic characteristics of the manufactured tablets after oral administration to a beagle dog.
The compound of chemical formula 1 was administered orally to a beagle dog as a single dose of 25, 50, and 100 mg tablets/head, orally as a single dose of 25 mg liquid/head, and intravenously as a single dose of 2 mg/kg. Blood samples were collected before (0) and 15, 30 min, 1, 1.5, 2, 4, 6, 8, 10, 16, and 24 hr after administration of the test substance to measure the blood concentration of the compound of chemical formula 1.
The preparation for single oral administration in liquid/head was prepared by homogeneously suspending 275 mg of the compound of chemical formula 1 in 220 ml of pre-prepared 2.5% HP-PCD (sterile water solution) to obtain 1.25 mg/ml. In addition, the preparation for single intravenous administration was prepared by dissolving 300 mg of the compound of chemical formula 1 in 150 ml of pre-prepared 10% HP-PCD (sterile water solution) to obtain 2 mg/ml.

[3] = Stability evaluation of the crystalline form of Example 1 (ICH long-term and accelerated storage, HPLC; PXRD); assay type: physicochemical; settings: for Content / Total impurities: HPLC
Experimental: The stability of the crystalline solid of the compound of chemical formula 1 prepared by Example 1 was evaluated. According to the ICH guideline, the stability test was conducted under long-term storage (25±2° C., 60±5% RH) and accelerated (40±2° C., 75±5% RH) conditions. The analysis was performed using HPLC to evaluate the change in content and the occurrence of impurities, and the results are shown in Table 1 below.
For a BCS Class 2 substance such as the compound of chemical formula 1, it is very important that the crystalline form remains stable under storage conditions. The more insoluble a substance is, the greater the impact of changes in crystallinity on the quality of the final product is. The change in the crystalline form causes changes in hygroscopicity, stability, dissolution, etc.

[4] = iv, 2 mg/kg, 2 mg/kg solution (iv), 10% HP-PCD, single dose, beagle dog plasma
[5] = po, 25 mg, 25 mg solution (po), per head, suspended in 2.5% HP-PCD, single dose, beagle dog plasma
[6] = po, 25 mg, 25 mg tablet (po), per head, single dose, beagle dog plasma
[7] = po, 50 mg, 50 mg tablet (po), per head, single dose, beagle dog plasma
[8] = po, 100 mg, 100 mg tablet (po), per head, single dose, beagle dog plasma
[9] = accelerated 40±2°C, 75±5% RH, 1 months
[10] = accelerated 40±2°C, 75±5% RH, 3 months
[11] = accelerated 40±2°C, 75±5% RH, 6 months
[12] = accelerated 40±2°C, 75±5% RH, Initial
[13] = long-term storage 25±2°C, 60±5% RH, 1 months
[14] = long-term storage 25±2°C, 60±5% RH, 3 months
[15] = long-term storage 25±2°C, 60±5% RH, 6 months
[16] = long-term storage 25±2°C, 60±5% RH, 12 months
[17] = long-term storage 25±2°C, 60±5% RH, Initial

SMILES: C[C@@H]1CN(c2ccc(S(C)(=O)=O)cc2F)CCN1c1nccc(C(=O)NC2C3CC4CC2CC(O)(C4)C3)n1 (stereo partly drawn) [chemical formula 1, 2-((R)-4-(2-fluoro-4-(methylsulfonyl)phenyl)-2-methylpiperazin-1-yl)-N-((1R,2s,3S,5S,7S)-5-hydroxyadamantan-2-yl)pyrimidine-4-carboxamide]
- Biopharmaceutics classification system (BCS) class [1]: Class 2 (high permeability, low solubility)
- solubility according to pH [1]: does not have the characteristic of improving solubility according to pH
- solubility ([1]; water): ≤ 1 µg/mL
- CL(inf)/F ([2]; 2 mg/kg solution (iv), 10% HP-PCD, single dose, beagle dog plasma): 5.5 mL/min/kg
- BA ([2]; 25 mg solution (po), per head, single dose, beagle dog): 45.82 % F
- BA ([2]; 25 mg tablet (po), per head, single dose, beagle dog): 44.31 % F
- average absorption (AUClast) of the tablet administration group relative to the liquid administration group ([2]; 25 mg/head po, beagle dog): 96.7%
- BA ([2]; 50 mg tablet (po), per head, single dose, beagle dog): 35.37 % F
- BA ([2]; 100 mg tablet (po), per head, single dose, beagle dog): 25.40 % F
- AUC(0-t) [2, 4]: 6180 ng·h/mL
- Cmax [2, 4]: 1160 ng/mL
- Tmax [2, 4]: 0.25 h
- half-life [2, 4]: 4.07 h
- AUC(0-t) [2, 5]: 3370 ng·h/mL
- Cmax [2, 5]: 393 ng/mL
- Tmax [2, 5]: 1.5 h
- half-life [2, 5]: 6.32 h
- Vd/F [2, 5]: 58.5 L
- AUC(0-t) [2, 6]: 3260 ng·h/mL
- Cmax [2, 6]: 420 ng/mL
- Tmax [2, 6]: 2 h
- half-life [2, 6]: 4.42 h
- Vd/F [2, 6]: 49.4 L
- CL/F [2, 5]: 6.9 L/h
- CL/F [2, 6]: 8.04 L/h
- AUC(0-t) [2, 7]: 5210 ng·h/mL
- Cmax [2, 7]: 666 ng/mL
- Tmax [2, 7]: 2 h
- half-life [2, 7]: 5.29 h
- Vd/F [2, 7]: 79.3 L
- CL/F [2, 7]: 10.2 L/h
- AUC(0-t) [2, 8]: 7480 ng·h/mL
- Cmax [2, 8]: 899 ng/mL
- Tmax [2, 8]: 1.75 h
- half-life [2, 8]: 6.89 h
- Vd/F [2, 8]: 119 L
- CL/F [2, 8]: 12.8 L/h
- Content [3, 9]: 99.6%
- Total impurities [3, 9]: 0.43%
- Content [3, 10]: 100.8%
- Total impurities [3, 10]: 0.44%
- Content [3, 11]: 100.0%
- Total impurities [3, 11]: 0.42%
- Content [3, 12]: 99.9%
- Total impurities [3, 12]: 0.34%
- Content [3, 13]: 99.5%
- Total impurities [3, 13]: 0.43%
- Content [3, 14]: 99.3%
- Total impurities [3, 14]: 0.41%
- Content [3, 15]: 100.5%
- Total impurities [3, 15]: 0.43%
- Content [3, 16]: 99.7%
- Total impurities [3, 16]: 0.45%
- Content [3, 17]: 99.9%
- Total impurities [3, 17]: 0.34%
- crystalline form (PXRD) of stored stability samples ([3]; stored 3, 6 and 12 months (12 months long-term only)): the crystalline form did not change
